Measurements as given in US9926318B2, “Tetracyclic autotaxin inhibitors” (PharmAkea, Inc., priority 2013, dated 2018).

What follows are compounds tested against human autotaxin (ATX) (Homo sapiens (Human), UniProt Q13822) (assay: Human autotaxin assay (choline release from LPC, Hep3B conditioned media)). Settings: concentrated conditioned media from Hep3B cells, LPC substrate.
Type: biochemical
Protocol: ATX activity is assayed in concentrated conditioned media from Hep3B human hepatocellular carcinoma cells by measuring the amount of choline released from the substrate, lysophosphatidylcholine (LPC) as it is cleaved to LPA. Conditioned media is collected from confluent Hep3B cells and concentrated 20-fold using Centriprep-30 filter devices (Millipore). […] 100 μl of a color mix containing 4.5 mM 4-aminoantipyrine, 2.7 mM N-ethyl-N-(2-hydroxy-3-sulfopropyl)-m-toluidine, 21 units/ml horseradish peroxidase and 3 units/ml choline oxidase in 50 mM Tris, pH 8, 4.5 mM MgCl2 is added and the incubation continued for 15 minutes at room temperature before reading the absorbance at 555 nm.
`O=C(O)CCCN1C(=O)C2Cc3c(n(CCCc4ccccc4)c4ccccc34)CN2C1=O` (racemic) [Compound 1-7, 4-(1,3-dioxo-6-(3-phenylpropyl)-11,11a-dihydro-1H-imidazo[1′,5′:1,6]pyrido[3,4-b]indol-2(3H,5H,6H)-yl)butanoic acid] showed an IC50 of under 500 nM.
`O=C1NCC2Cc3c(n(Cc4ccc(F)cc4)c4ccccc34)CN12` (racemic) [Compound 1-13, 6-(4-fluorobenzyl)-5,6,11,11a-tetrahydro-1H-imidazo[1′,5′:1,6]pyrido[3,4-b]indol-3(2H)-one] showed an IC50 of under 500 nM.
With `CN1CC2Cc3c(n(Cc4ccc(F)cc4)c4ccccc34)CN2C1=O` (racemic) [Compound 1-14, 6-(4-fluorobenzyl)-2-methyl-5,6,11,11a-tetrahydro-1H-imidazo[1′,5′:1,6]pyrido[3,4-b]indol-3(2H)-one] the IC50 was under 500 nM.
Work on `O=C1NCC(=O)N2Cc3c(c4ccccc4n3Cc3ccc(F)cc3)CC12` (racemic) [Compound 1-16, 7-(4-fluorobenzyl)-2,3,6,7,12,12a-hexahydropyrazino[1′,2′:1,6]pyrido[3,4-b]indole-1,4-dione] yielded an IC50 of under 500 nM.
Work on `O=C(O)CN1CC2Cc3c(n(Cc4ccc(F)cc4)c4ccccc34)CN2C1=O` (racemic) [Compound 1-20, 2-(6-(4-fluorobenzyl)-3-oxo-11,11a-dihydro-1H-imidazo[1′,5′:1,6]pyrido[3,4-b]indol-2(3H,5H,6H)-yl)acetic acid] yielded an IC50 of 500 to 1000 nM.
`O=C(O)CN1CC(=O)N2Cc3c(c4ccccc4n3Cc3ccc(F)cc3)CC2C1=O` (racemic) [Compound 1-23, 2-(7-(4-fluorobenzyl)-1,4-dioxo-3,4,6,7,12,12a-hexahydropyrazino[1′,2′:1,6]pyrido[3,4-b]indol-2(1H)-yl)acetic acid] gave an IC50 of under 500 nM.
`CN1C(=O)C2Cc3c(n(Cc4ccc(F)cc4)c4ccccc34)CN2C1=O` (racemic) [Compound 1-129, 6-(4-fluorobenzyl)-2-methyl-5,6,11,11a-tetrahydro-1H-imidazo[1′,5′:1,6]pyrido[3,4-b]indole-1,3(2H)-dione] gave an IC50 of under 500 nM.
In the case of `N#CCN1C(=O)C2Cc3c(n(Cc4ccc(F)cc4)c4ccccc34)CN2C1=O` (racemic) [Compound 1-139, 2-(6-(4-fluorobenzyl)-1,3-dioxo-5,6,11,11a-tetrahydro-1H-imidazo[1′,5′:1,6]pyrido[3,4-b]indol-2(3H)-yl)acetonitrile], the IC50 is reported as under 500 nM.
`O=C1C2Cc3c(n(Cc4ccc(F)cc4)c4ccccc34)CN2C(=O)N1Cc1nn[nH]n1` (racemic) [Compound 1-140, 2-((2H-tetrazol-5-yl)methyl)-6-(4-fluorobenzyl)-5,6,11,11a-tetrahydro-1H-imidazo[1′,5′:1,6]pyrido[3,4-b]indole-1,3(2H)-dione] showed an IC50 of under 500 nM.
Compound `CC1(C)c2c(n(Cc3ccc(F)cc3)c3ccccc23)CN2C(=O)NC(=O)C21` (racemic) [Compound A110, 6-(4-fluorobenzyl)-11,11-dimethyl-5,6,11,11a-tetrahydro-1H-imidazo[1′,5′:1,6]pyrido[3,4-b]indole-1,3(2H)-dione] has an IC50 of under 500 nM.
`CC1(C)c2c(n(Cc3ccc(F)cc3)c3ccccc23)CN2C(=O)NC(=O)C21` (single isomer, unassigned) [A110 ent A, 6-(4-fluorobenzyl)-11,11-dimethyl-5,6,11,11a-tetrahydro-1H-imidazo[1′,5′:1,6]pyrido[3,4-b]indole-1,3(2H)-dione] was tested, and the IC50 was under 500 nM.
Work on `CC1(C)c2c(n(Cc3ccc(F)cc3)c3ccccc23)CN2C(=O)NC(=O)C21` (single isomer, unassigned) [A110 ent B, 6-(4-fluorobenzyl)-11,11-dimethyl-5,6,11,11a-tetrahydro-1H-imidazo[1′,5′:1,6]pyrido[3,4-b]indole-1,3(2H)-dione] yielded an IC50 of under 500 nM.
`O=C(O)CCN1C(=O)C2Cc3c(n(Cc4ccc(F)cc4)c4ncccc34)CN2C1=O` (single isomer, unassigned; enta) [C114 entA, 3-{8-[(4-fluorophenyl)methyl]-12,14-dioxo-6.8.11.13-tetraazatetracyclo[7.7.0.02, 7.011,15]hexadeca-1(9),2(7),3,5-tetraen-13-yl}propionic acid] was tested, and the IC50 was under 500 nM.
`O=C(O)CCN1C(=O)C2Cc3c(n(Cc4ccc(F)cc4)c4ncccc34)CN2C1=O` (single isomer, unassigned; entb) [C114 entB, 3-{8-[(4-fluorophenyl)methyl]-12,14-dioxo-6.8.11.13-tetraazatetracyclo[7.7.0.02, 7.011,15]hexadeca-1(9),2(7),3,5-tetraen-13-yl}propionic acid] gave an IC50 of under 500 nM.
Compound `O=C(O)CCCN1C(=O)[C@@H]2Cc3c(n(Cc4ccc(F)cc4)c4ccccc34)CN2C1=O` [Compound 1-2, (S)-4-(6-(4-fluorobenzyl)-1,3-dioxo-11,11a-dihydro-1H-imidazo[1′,5′:1,6]pyrido[3,4-b]indol-2(3H,5H,6H)-yl)butanoic acid] has an IC50 of under 500 nM.
Compound `O=C(O)CCCN1C(=O)[C@H]2Cc3c(n(Cc4ccc(F)cc4)c4ccccc34)CN2C1=O` [Compound 1-3, (R)-4-(6-(4-fluorobenzyl)-1,3-dioxo-11,11a-dihydro-1H-imidazo[1′,5′:1,6]pyrido[3,4-b]indol-2(3H,5H,6H)-yl)butanoic acid] has an IC50 of under 500 nM.
For `O=C1OCC2Cc3c(n(Cc4ccc(F)cc4)c4ccccc34)CN12` (stereo not drawn) [Compound 1-8, 6-(4-fluorobenzyl)-5,6,11,11a-tetrahydrooxazolo[3′,4′:1,6]pyrido[3,4-b]indol-3(1H)-one], the IC50 was under 500 nM.
With `O=C1OC[C@@H]2Cc3c(n(Cc4ccc(F)cc4)c4ccccc34)CN12` [Compound 1-9, (S)-6-(4-fluorobenzyl)-5,6,11,11a-tetrahydrooxazolo[3′,4′:1,6]pyrido[3,4-b]indol-3(1H)-one] the IC50 was under 500 nM.
Compound `O=C1OC[C@H]2Cc3c(n(Cc4ccc(F)cc4)c4ccccc34)CN12` [Compound 1-10, (R)-6-(4-fluorobenzyl)-5,6,11,11a-tetrahydrooxazolo[3′,4′:1,6]pyrido[3,4-b]indol-3(1H)-one] has an IC50 of over 1000 nM.
In the case of `COc1ccc(Cn2c3c(c4ccccc42)C[C@H]2C(=O)N(CCCC(=O)O)C(=O)N2C3)cn1` [Compound 1-11, (S)-4-(6-((6-methoxypyridin-3-yl)methyl)-1,3-dioxo-11,11a-dihydro-1H-imidazo[1′,5′:1,6]pyrido[3,4-b]indol-2(3H,5H,6H)-yl)butanoic acid], the IC50 is reported as under 500 nM.
Work on `COc1ccc(Cn2c3c(c4ccccc42)C[C@H]2C(=O)N(CCC(=O)O)C(=O)N2C3)cn1` [Compound 1-12, (S)-3-(6-((6-methoxypyridin-3-yl)methyl)-1,3-dioxo-11,11a-dihydro-1H-imidazo[1′,5′:1,6]pyrido[3,4-b]indol-2(3H,5H,6H)-yl)propanoic acid] yielded an IC50 of under 500 nM.
Work on `COc1ccc(Cn2c3c(c4ccccc42)C[C@H]2C(=O)N(CC4(C(=O)O)CC4)C(=O)N2C3)cn1` [Compound 1-18, (S)-1-((6-((6-methoxypyridin-3-yl)methyl)-1,3-dioxo-5,6,11,11a-tetrahydro-1H-imidazo[1′,5′:1,6]pyrido[3,4-b]indol-2(3H)-yl)methyl)cyclopropane-1-carboxylic acid] yielded an IC50 of under 500 nM.
In the case of `O=C(O)CN1C(=O)C2Cc3c(n(Cc4ccc(F)cc4)c4ccccc34)CN2C1=O` (stereo not drawn) [Compound 1-19, 2-(6-(4-fluorobenzyl)-1,3-dioxo-5,6,11,11a-tetrahydro-1H-imidazo[1′,5′:1,6]pyrido[3,4-b]indol-2(3H)-yl)acetic acid], the IC50 is reported as under 500 nM.
For `O=C(O)CCN1CC2Cc3c(n(Cc4ccc(F)cc4)c4ccccc34)CN2C1=O` (stereo not drawn) [Compound 1-21, 3-(6-(4-fluorobenzyl)-3-oxo-11,11a-dihydro-1H-imidazo[1′,5′:1,6]pyrido[3,4-b]indol-2(3H,5H,6H)-yl)propanoic acid], the IC50 was under 500 nM.
For `O=C(O)CCN1CC(=O)N2Cc3c(c4ccccc4n3Cc3ccc(F)cc3)CC2C1=O` (stereo not drawn) [Compound 1-24, 3-(7-(4-fluorobenzyl)-1,4-dioxo-3,4,6,7,12,12a-hexahydropyrazino[1′,2′:1,6]pyrido[3,4-b]indol-2(1H)-yl)propanoic acid], the IC50 was under 500 nM.
Work on `O=C1NC(=O)N2Cc3c(c4ccc(Cl)cc4n3Cc3ccc(F)cc3)C[C@@H]12` [Compound 1-26, (S)-8-chloro-6-(4-fluorobenzyl)-5,6,11,11a-tetrahydro-1H-imidazo[1′,5′:1,6]pyrido[3,4-b]indole-1,3(2H)-dione] yielded an IC50 of over 1000 nM.
In the case of `O=C(O)CCCN1C(=O)[C@@H]2Cc3c(n(Cc4ccc(F)cc4)c4cc(Cl)ccc34)CN2C1=O` [Compound 1-27, (S)-4-(8-chloro-6-(4-fluorobenzyl)-1,3-dioxo-5,6,11,11a-tetrahydro-1H-imidazo[1′,5′:1,6]pyrido[3,4-b]indol-2(3H)-yl)butanoic acid], the IC50 is reported as over 1000 nM.
With `CC(C)(CN1C(=O)[C@@H]2Cc3c(n(Cc4ccc(F)cc4)c4ccccc34)CN2C1=O)C(=O)O` [Compound 1-30, (S)-3-(6-(4-fluorobenzyl)-1,3-dioxo-5,6,11,11a-tetrahydro-1H-imidazo[1′,5′:1,6]pyrido[3,4-b]indol-2(3H)-yl)-2,2-dimethylpropanoic acid] the IC50 was under 500 nM.
Work on `O=C1[C@@H]2Cc3c(n(Cc4ccc(F)cc4)c4ccccc34)CN2C(=O)N1CC1(C(=O)O)CC1` [Compound 1-34, (S)-1-((6-(4-fluorobenzyl)-1,3-dioxo-5,6,11,11a-tetrahydro-1H-imidazo[1′,5′:1,6]pyrido[3,4-b]indol-2(3H)-yl)methyl)cyclopropane-1-carboxylic acid] yielded an IC50 of under 500 nM.
`CC(C)(CCN1C(=O)[C@@H]2Cc3c(n(Cc4ccc(F)cc4)c4ccccc34)CN2C1=O)C(=O)O` [Compound 1-39, (S)-4-(6-(4-fluorobenzyl)-1,3-dioxo-5,6,11,11a-tetrahydro-1H-imidazo[1′,5′:1,6]pyrido[3,4-b]indol-2(3H)-yl)-2,2-dimethylbutanoic acid] gave an IC50 of under 500 nM.
